We go through 28 molecules from article PMC9687812, “Discovery of Trace Amine-Associated Receptor 1 (TAAR1) Agonist 2-(5-(4′-Chloro-[1,1′-biphenyl]-4-yl)-4H-1,2,4-triazol-3-yl)ethan-1-amine (LK00764) for the Treatment of Psychotic Disorders” (Biomolecules, 2022).

The target in data set [1] is T1, TAAR1 (Homo sapiens, UniProt Q96RJ0).
T1 sequence (Q96RJ0 1-339): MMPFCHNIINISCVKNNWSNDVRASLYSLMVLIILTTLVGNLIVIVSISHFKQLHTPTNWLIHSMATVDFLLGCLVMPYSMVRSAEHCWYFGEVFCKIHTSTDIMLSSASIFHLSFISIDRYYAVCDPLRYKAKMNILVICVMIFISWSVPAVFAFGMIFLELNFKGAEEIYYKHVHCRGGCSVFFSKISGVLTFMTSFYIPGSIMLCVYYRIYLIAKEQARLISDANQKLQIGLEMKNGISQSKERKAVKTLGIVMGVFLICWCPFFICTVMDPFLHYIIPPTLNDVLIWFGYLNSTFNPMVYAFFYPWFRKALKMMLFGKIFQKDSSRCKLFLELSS
The data set is described as follows: BRET-based cellular cAMP (EPAC biosensor) assay of TAAR1 agonism in transfected HEK-293 cells. As to conditions: for Emax: HEK293, read-out: Emax: maximum observed activation of TAAR1 relative to that observed for 1 μM of β-PEA; for Emax: maximum observed activation of TAAR1 relative to that observed for 1 μM of β-PEA: relative to 1 μM β-PEA, mean from 3 BRET assays, errors ±5–10%.
Description: The Bioluminescence Resonance Energy Transfer approach (BRET) has been used for functional activity experiments. HEK-293 cells were transiently transfected with cDNA for TAARs and cAMP BRET biosensor (EPAC) and then plated in a 96-well plate, as described [23]. All compounds were tested at the initial concentration of 10 µM. […] A natural agonist of TAAR1 β-phenylethylamine (β-PEA) was used as a positive control.

[2] abbreviates: TAAR1 activation, BRET assay, HEK-293, mean from 3 assays.

The structures appear in SMILES notation. pEC50: −log10 of the molar value. Read-outs that look alike come from different tables or passages of the source.

Regarding `Cc1cc(-c2nnc(CCN)[nH]2)ccc1OCc1ccc(F)cc1.Cl` [Compound 48, 2-(5-(4-[(4-Fluorobenzyl)oxy]-3-methylphenyl)-4H-1,2,4-triazol-3-yl)ethan-1-amine Hydrochloride], the melting point (commonly the temperature, or range, at which the solid turns liquid) lay in the range of 182 to 183 °C. Moreover, in data set [1], the pEC50 (commonly the negative decadic logarithm of the EC50, by convention in mol/L) is 6.79 and the Emax (as a rule, the maximal effect, on the per cent scale that the assay sets) came to 98%.
`COc1ccc(-c2nnc(CCN)[nH]2)cc1OC.Cl` [Compound 11, 2-(5-(3,4-Dimethoxyphenyl)-4H-1,2,4-triazol-3-yl)ethan-1-amine Hydrochloride] came in with a melting point of 209 to 210 °C. For the same molecule, the EC50 result in data set [1] (setting [2]) is “inactive”. In data set [1], the “Emax: maximum observed activation of TAAR1 relative to that observed for 1 μM of β-PEA” value is “inactive”.
Consider `Cl.NCCc1nnc(-c2ccc(F)cc2)[nH]1` [Compound 34, 2-(5-(4-Fluorophenyl)-4H-1,2,4-triazol-3-yl)ethan-1-amine Hydrochloride], for which the melting point lay within 253 to 256 °C. For the same molecule, in data set [1], the pEC50 was below 6.00 and the Emax stood at 169%.
In turn, `COc1cc(OC)cc(-c2nnc(CCN)[nH]2)c1.Cl` [Compound 33, 2-(5-(3,5-Dimethoxyphenyl)-4H-1,2,4-triazol-3-yl)ethan-1-amine Hydrochloride] returned a melting point of 245 to 247 °C. Besides, in data set [1], the Emax worked out at 55%. For the same molecule, in data set [1] (setting [2]), the pEC50 is below 6.00.
In turn, `Cl.NCCc1nnc(-c2ccc(Cl)cc2)[nH]1` [Compound 28, 2-(5-(4-Chlorophenyl)-4H-1,2,4-triazol-3-yl)ethan-1-amine Hydrochloride] had a melting point of 239 to 241 °C. In data set [1], the pEC50 was 6.28 and the Emax was determined as 107%.
Turning to `Cl.NCCc1nnc(-c2ccc(OCc3ccccc3F)c(I)c2)[nH]1` [Compound 56, 2-(5-(4-[(2-Fluorobenzyl)oxy]-3-iodophenyl)-4H-1,2,4-triazol-3-yl)ethan-1-amine Hydrochloride], the melting point is 208 to 209 °C. Besides, in data set [1], the pEC50 was 6.50 and the Emax turned out to be 87%.
Molecule `COc1cccc(-c2nnc(CCN)[nH]2)c1.Cl` [Compound 7, 2-(5-(3-Methoxyphenyl)-4H-1,2,4-triazol-3-yl)ethan-1-amine Hydrochloride] had a melting point of 235 to 236 °C. Moreover, in data set [1], the pEC50 is 6.04 and the Emax was found to be 132%.
Molecule `Cl.NCCc1nnc(-c2ccc(-c3cccc(F)c3)cc2)[nH]1` [Compound 60, 2-(5-(3′-Fluoro-(1,1′-biphenyl)-4-yl)-4H-1,2,4-triazol-3-yl)ethan-1-amine Hydrochloride] registered a melting point of 260 to 262 °C. In addition, in data set [1], the pEC50 was 7.59 and the Emax was determined as 95%.
On to `Cc1cc(-c2nnc(CCN)[nH]2)ccc1Br.Cl` [Compound 12, 2-(5-(4-Bromo-3-methylphenyl)-4H-1,2,4-triazol-3-yl)ethan-1-amine Hydrochloride], for which the melting point lay in the range of 251 to 252 °C. Also, in data set [1], the pEC50 is 6.09 and the Emax turned out to be 87%.
For the molecule `Cl.NCCc1nnc(-c2ccc(OCc3ccccc3)cc2)[nH]1` [Compound 19, 2-(5-(4-(Benzyloxy)phenyl)-4H-1,2,4-triazol-3-yl)ethan-1-amine Hydrochloride], the melting point was in the range of 238 to 240 °C. In data set [1], the pEC50 is 7.59 and the Emax was found to be 113%. In data set [1] (setting [2]), the EC50 result is given as “double-digit nanomolar range”.
`Cl.NCCc1nnc(C(c2ccccc2)c2ccccc2)[nH]1` [Compound 13, 2-(5-(Diphenylmethyl)-4H-1,2,4-triazol-3-yl)ethan-1-amine Hydrochloride] gave a melting point of 236 to 237 °C. The EC50 result in data set [1] (setting [2]) is “inactive”. The “Emax: maximum observed activation of TAAR1 relative to that observed for 1 μM of β-PEA” value in data set [1] is “inactive”.
For the molecule `Cc1cc(-c2nnc(CCN)[nH]2)ccc1OCc1ccccc1F.Cl` [Compound 46, 2-(5-(4-[(2-Fluorobenzyl)oxy]-3-methylphenyl)-4H-1,2,4-triazol-3-yl)ethan-1-amine Hydrochloride], the melting point fell in the range of 234 to 236 °C. Further, in data set [1], the pEC50 was 6.40 and the Emax turned out to be 82%.
Molecule `Cl.NCCc1nnc(-c2ccc(-c3ccc(OC(F)(F)F)cc3)cc2)[nH]1` [Compound 59, 2-(5-(4′-Trifluoromethoxy-(1,1′-biphenyl)-4-yl)-4H-1,2,4-triazol-3-yl)ethan-1-amine Hydrochloride] gave a melting point of 299 to 300 °C. Further, in data set [1], the pEC50 is 7.89 and the Emax stood at 95%.
In the case of `Cc1ccc(-c2nnc(CCN)[nH]2)cc1C.Cl` [Compound 37, 2-(5-(3,4-Dimethylphenyl)-4H-1,2,4-triazol-3-yl)ethan-1-amine Hydrochloride], the melting point lay in the range of 231 to 234 °C. Further, in data set [1], the pEC50 is below 6.00 and the Emax was 70%.
Molecule `Cl.NCCc1nnc(-c2ccc(OCc3cccc(F)c3)cc2)[nH]1` [Compound 44, 2-(5-(4-[(3-Fluorobenzyl)oxy]phenyl)-4H-1,2,4-triazol-3-yl)ethan-1-amine Hydrochloride] came in with a melting point of 214 to 216 °C. Moreover, in data set [1], the pEC50 is 7.52 and the Emax is 112%.
Turning to `Cl.NCCc1nnc(-c2ccc(-c3ccc(F)cc3F)cc2)[nH]1` [Compound 61, 2-(5-(2′,4′-Difluoro-(1,1′-biphenyl)-4-yl)-4H-1,2,4-triazol-3-yl)ethan-1-amine Hydrochloride], the melting point lay in the range of 251 to 253 °C. Also, in data set [1], the negative-log EC50 (pEC50) was 7.74 and the Emax stood at 93%.
In turn, `Cl.NCCc1nnc(-c2ccc(-c3cc(F)cc(F)c3)cc2)[nH]1` [Compound 65, 2-(5-(3′,5′-Difluoro-(1,1′-biphenyl)-4-yl)-4H-1,2,4-triazol-3-yl)ethan-1-amine Hydrochloride] gave a melting point of 260 to 262 °C. For the same molecule, in data set [1], the negative logarithm of the EC50 (pEC50) is 7.89 and the maximal effect (Emax) came out at 105%.
With `Cl.NCCc1nnc(-c2ccccc2)[nH]1` [Compound 22, 2-(5-Phenyl-4H-1,2,4-triazol-3-yl)ethan-1-amine Hydrochloride], the melting point lay within 250 to 252 °C. In data set [1], the pEC50 is 6.55 and the Emax amounted to 118%.
Molecule `Cl.NCCc1nnc(-c2ccccc2Br)[nH]1` [Compound 29, 2-(5-(2-Bromophenyl)-4H-1,2,4-triazol-3-yl)ethan-1-amine Hydrochloride] displayed a melting point of 194 to 196 °C. In data set [1], the negative logarithm of the EC50 (pEC50) is 6.16 and the maximal effect (Emax) was determined as 111%.
Regarding `CCCCOc1ccc(-c2nnc(CCN)[nH]2)cc1.Cl` [Compound 40, 2-(5-(4-Butoxyphenyl)-4H-1,2,4-triazol-3-yl)ethan-1-amine Hydrochloride], the melting point fell in the range of 205 to 207 °C. Moreover, in data set [1], the pEC50 was 7.47 and the Emax came out at 107%. Also, the EC50 entry in data set [1] (setting [2]) is given as “double-digit nanomolar range”.
As to `Cl.NCCc1nnc(-c2cc(Cl)cc(Cl)c2)[nH]1` [Compound 21, 2-(5-(3,5-Dichlorophenyl)-4H-1,2,4-triazol-3-yl)ethan-1-amine Hydrochloride], the melting point lay within 222 to 224 °C. For the same molecule, in data set [1], the pEC50 is 7.64 and the Emax was 112%.
For `Cl.NCCc1nnc(COc2ccccc2)[nH]1` [Compound 17, 2-(5-(Phenoxymethyl)-4H-1,2,4-triazol-3-yl)ethan-1-amine Hydrochloride], the melting point is 206 to 207 °C. Besides, the EC50 result in data set [1] (setting [2]) is “inactive”. Besides, the “Emax: maximum observed activation of TAAR1 relative to that observed for 1 μM of β-PEA” value in data set [1] was “inactive”.
As to `Cl.NCCc1nnc(-c2ccc([N+](=O)[O-])cc2)[nH]1` [Compound 14, 2-(5-(4-Nitrophenyl)-4H-1,2,4-triazol-3-yl)ethan-1-amine Hydrochloride], the melting point lay within 239 to 240 °C. The EC50 entry in data set [1] (setting [2]) is “inactive”. In data set [1], the “Emax: maximum observed activation of TAAR1 relative to that observed for 1 μM of β-PEA” value was “inactive”.
The molecule `Cc1ccccc1-c1nnc(CCN)[nH]1.Cl` [Compound 23, 2-(5-(2-Methylphenyl)-4H-1,2,4-triazol-3-yl)ethan-1-amine Hydrochloride] yielded a melting point of 235 to 236 °C. In data set [1], the pEC50 was 6.33 and the maximal effect (Emax) was 116%.
For the molecule `Cl.NCCc1nnc(-c2ccc(OCc3ccccc3F)cc2)[nH]1` [Compound 43, 2-(5-(4-[(2-Fluorobenzyl)oxy]phenyl)-4H-1,2,4-triazol-3-yl)ethan-1-amine Hydrochloride], the melting point fell in the range of 232 to 235 °C. Also, in data set [1], the pEC50 is 7.35 and the Emax came out at 114%.
The matching figures for `Cl.NCCc1nnc(-c2cccc(-c3ccc(OC(F)(F)F)cc3)c2)[nH]1` [Compound 67, 2-(5-(4′-(Trifluoromethoxy)-(1,1′-biphenyl)-3-yl)-4H-1,2,4-triazol-3-yl)ethan-1-amine Hydrochloride]: 253 to 257 °C, 7.02 and 94%.
Regarding `Cl.NCCc1nnc(-c2cccs2)[nH]1` [Compound 16, 2-(5-(Thiophen-2-yl)-4H-1,2,4-triazol-3-yl)ethan-1-amine Hydrochloride], the melting point fell in the range of 248 to 250 °C. Moreover, in data set [1], the pEC50 is below 6.00 and the maximal response (Emax) was determined as 138%.
Regarding `Cl.NCCc1nnc(-c2ccncc2)[nH]1` [Compound 10, 2-(5-(Pyridin-4-yl)-4H-1,2,4-triazol-3-yl)ethan-1-amine Hydrochloride], the melting point lay within 257 to 258 °C. In data set [1], the Emax was 47%. The pEC50 in data set [1] (setting [2]) is below 6.00.
